Test results as given in patent US20250059172A1, “INDAZOLE COMPOUND AND PHARMACEUTICAL” (NIPPON SHINYAKU CO., LTD., priority 2021, published 2025).

Key:
human mPGES-1 = human mPGES-1 (Homo sapiens (Human), UniProt O14684); assay: mPGES-1 inhibitory activity test; type: biochemical; settings: for inhibition at 0.01 µM: 10 nM test compound; for inhibition at 0.1 µM: 100 nM test compound
Procedure, shortened: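 PGE2 formation was quantified by HTRF and reported as percent inhibition at 10 and 100 nM compound or as IC50. The 60-second reaction at 4° C used 1 μM PGH2, after a 20-minute 4° C preincubation of compound (1% DMSO final) with glutathione-supplemented (2.5 mM, pH 7.4) microsomes. The microsomes were from transiently transfected CHO-K1 cells expressing human mPGES-1.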

human A549 cells = assay: Inhibition test of PGE2 production using human A549 cells; type: cell-based; settings: IL-1β stimulated A549 cells, 24 h, PGE2 by HTRF, read-out: A549 cell inhibition of PGE2 production IC50
Procedure, shortened: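 A549 cells were preincubated 60 min with compound in RPMI/3% FBS (0.1% DMSO final), then stimulated with IL-1β (5 ng/well) for 24 h at 37°C. PGE2 was measured by HTRF and PGF2a by EIA; activity was normalized to stimulated minus unstimulated controls, and IC50 derived.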

human mPGES-1, sequence (O14684 whole entry): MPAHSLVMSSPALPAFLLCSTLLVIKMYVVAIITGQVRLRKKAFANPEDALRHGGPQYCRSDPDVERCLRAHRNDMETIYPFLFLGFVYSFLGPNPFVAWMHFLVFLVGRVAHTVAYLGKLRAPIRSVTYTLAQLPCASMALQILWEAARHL

| SMILES | inhibition at 0.01 µM (human mPGES-1) [%] | inhibition at 0.1 µM (human mPGES-1) [%] | IC50 (human A549 cells) [nM] |
| --- | --- | --- | --- |
| COc1cc(-n2ncc3c(NC(=O)c4cc(CNC(=O)CC(C)(C)C)ccc4Cl)cccc32)ccn1 [Example 159, 2-Chloro-5-{[(3,3-dimethylbutanoyl)amino]methyl}-N-[1-(2-methoxypyridin-4-yl)-1H-indazol-4-yl]benzamide] | 55 | 100 | 9.1 |
| COc1cc(-n2ncc3c(NC(=O)c4cc(CNC(=O)C(C)(C)CO)ccc4Cl)cccc32)ccn1 [Example 164, 2-Chloro-5-{[(3-hydroxy-2,2-dimethylpropanoyl)amino]methyl}-N-[1-(2-methoxypyridin-4-yl)-1H-indazol-4-yl]benzamide] | 69 | 100 | 28.4 |
| COc1cc(-n2ncc3c(NC(=O)c4cc(CNS(=O)(=O)C5CC5)ccc4Cl)cccc32)ccn1 [Example 165, 2-Chloro-5-{[(cyclopropylsulfonyl)amino]methyl}-N-[1-(2-methoxypyridin-4-yl)-1H-indazol-4-yl]benzamide] | 80 | 96 | 8.6 |
| CC(C)(CO)C(=O)NCc1ccc(Cl)c(C(=O)Nc2cccc3c2cnn3-c2cncc(C(F)(F)F)c2)c1 [Example 171, 2-Chloro-5-{[(3-hydroxy-2,2-dimethylpropanoyl)amino]methyl}-N-{1-[5-(trifluoromethyl)pyridin-3-yl]-1H-indazol-4-yl}benzamide] | – | 100 | 9.6 |
| CC(C)n1ncc2c(NC(=O)c3cc(CNC(=O)C4CCCC4)ccc3Cl)cccc21 [Example 180, 2-Chloro-5-{[(cyclopentylcarbonyl)amino]methyl}-N-[1-(propan-2-yl)-1H-indazol-4-yl]benzamide] | 75 | – | 40.6 |
| O=C(Nc1cccc2c1cnn2-c1cscn1)c1cc(CNC(=O)C2CCCC2)ccc1Cl [Example 188, 2-Chloro-5-{[(cyclopentylcarbonyl)amino]methyl}-N-[1-(1,3-thiazol-4-yl)-1H-indazol-4-yl]benzamide] | 68 | – | 102 |
| O=C(Nc1cccc2c1cnn2-c1cscn1)c1cc(CNC(=O)C2(C(F)(F)F)CC2)ccc1Cl [Example 189, 2-Chloro-N-[1-(1,3-thiazol-4-yl)-1H-indazol-4-yl]-5-[({[1-(trifluoromethyl)cyclopropyl]carbonyl}amino)methyl]benzamide] | 80 | – | 23.6 |
| CC(C)(CO)C(=O)NCc1ccc(Cl)c(C(=O)Nc2cccc3c2cnn3-c2cscn2)c1 [Example 192, 2-Chloro-5-{[(3-hydroxy-2,2-dimethylpropanoyl)amino]methyl}-N-[1-(1,3-thiazol-4-yl)-1H-indazol-4-yl]benzamide] | 70 | 90 | 31.4 |
| O=C(Nc1cccc2c1cnn2-c1cscn1)c1cc(CNS(=O)(=O)C2CC2)ccc1Cl [Example 193, 2-Chloro-5-{[(cyclopropylsulfonyl)amino]methyl}-N-[1-(1,3-thiazol-4-yl)-1H-indazol-4-yl]benzamide] | 71 | – | 33 |
| CC(C)(C)C(=O)NCc1ccc(C(F)(F)F)c(C(=O)Nc2cccc3c2cnn3-c2cscn2)c1 [Example 201, 5-{[(2,2-Dimethylpropanoyl)amino]methyl}-N-[1-(1,3-thiazol-4-yl)-1H-indazol-4-yl]-2-(trifluoromethyl)benzamide] | 85 | 97 | 20.1 |

The next compounds have a lower IC50 (human A549 cells) than those just listed; values first:

| inhibition at 0.01 µM (human mPGES-1) [%] | inhibition at 0.1 µM (human mPGES-1) [%] | IC50 (human A549 cells) [nM] | SMILES |
| --- | --- | --- | --- |
| 49 | 100 | 1.6 | CC(C)(C)C(=O)NCc1ccc(Cl)c(C(=O)Nc2cccc3c2cnn3-c2ccc(F)cc2)c1Cl [Example 158, 2,6-Dichloro-3-{[(2,2-dimethylpropanoyl)amino]methyl}-N-[1-(4-fluorophenyl)-1H-indazol-4-yl]benzamide] |
| 53 | 92 | 1.2 | O=C(Nc1cccc2c1cnn2-c1cncc(C(F)(F)F)c1)c1cc(CNC(=O)C2(C(F)(F)F)CC2)ccc1Cl [Example 168, 2-Chloro-5-[({[1-(trifluoromethyl)cyclopropyl]carbonyl}amino)methyl]-N-{1-[5-(trifluoromethyl)pyridin-3-yl]-1H-indazol-4-yl}benzamide] |
| 100 | – | 5.6 | O=C(Nc1cccc2c1cnn2-c1cncc(C(F)(F)F)c1)c1cc(CNS(=O)(=O)C2CC2)ccc1Cl [Example 172, 2-Chloro-5-{[(cyclopropylsulfonyl)amino]methyl}-N-{l-[5-(trifluoromethyl)pyridin-3-yl]-1H-indazol-4-yl}benzamide] |
| 54 | 86 | 6.7 | CC(C)(C)CC(=O)NCc1ccc(Cl)c(C(=O)Nc2cccc3c2cnn3-c2ccc(C(F)(F)F)nc2)c1 [Example 173, 2-Chloro-5-{[(3,3-dimethylbutanoyl)amino]methyl}-N-{1-[6-(trifluoromethyl)pyridin-3-yl]-1H-indazol-4-yl}benzamide] |
| 85 | 86 | 1.9 | O=C(Nc1cccc2c1cnn2-c1ccc(C(F)(F)F)nc1)c1cc(CNC(=O)C2CCCC2)ccc1Cl [Example 174, 2-Chloro-5-{[(cyclopentylcarbonyl)amino]methyl}-N-{1-[6-(trifluoromethyl)pyridin-3-yl]-1H-indazol-4-yl}benzamide] |
| 59 | 95 | 4.4 | O=C(Nc1cccc2c1cnn2-c1ccc(C(F)(F)F)nc1)c1cc(CNS(=O)(=O)C2CC2)ccc1Cl [Example 179, 2-Chloro-5-{[(cyclopropylsulfonyl)amino]methyl}-N-{1-[6-(trifluoromethyl)pyridin-3-yl]-1H-indazol-4-yl}benzamide] |
| 62 | 83 | 0.7 | CC(C)(C)C(=O)NCc1ccc(C(F)(F)F)c(C(=O)Nc2cccc3c2cnn3-c2ccc(OC(F)(F)F)cc2)c1 [Example 194, 5-{[(2,2-Dimethylpropanoyl)amino]methyl}-N-{1-[4-(trifluoromethoxy)phenyl]-1H-indazol-4-yl}-2-(trifluoromethyl)benzamide] |
| 65 | 84 | 0.8 | CC(C)(C)C(=O)NCc1ccc(C(F)(F)F)c(C(=O)Nc2cccc3c2cnn3-c2cccc(OC(F)(F)F)c2)c1 [Example 195, 5-{[(2,2-Dimethylpropanoyl)amino]methyl}-N-{1-[3-(trifluoromethoxy)phenyl]-1H-indazol-4-yl}-2-(trifluoromethyl)benzamide] |
| 60 | 78 | 2 | CC(C)(C)C(=O)NCc1ccc(C(F)(F)F)c(C(=O)Nc2cccc3c2cnn3-c2ccc(C(F)(F)F)nc2)c1 [Example 196, 5-{[(2,2-Dimethylpropanoyl)amino]methyl}-2-(trifluoromethyl)-N-{1-[6-(trifluoromethyl)pyridin-3-yl]-1H-indazol-4-yl}benzamide] |
| 69 | 103 | 0.9 | Cc1ccc(-n2ncc3c(NC(=O)c4cc(CNC(=O)C(C)(C)C)ccc4C(F)(F)F)cccc32)cc1Cl [Example 200, N-[1-(3-chloro-4-methylphenyl)-1H-indazol-4-yl]-5-{[(2,2-dimethylpropanoyl)amino]methyl}-2-(trifluoromethyl)benzamide] |
